In ChEMBL document CHEMBL2073756, “Contribution of P-glycoprotein to bunitrolol efflux across blood-brain barrier” (Biopharm Drug Dispos, 1999):

Assays:
[1] = target: ATP-dependent translocase ABCB1 (Mus musculus, UniProt P21447); assay: TP_TRANSPORTER: increase in brain concentration in mdr1a(-/-) mouse; type: functional, organism-based; conditions: in vivo
[2] = target: ATP-dependent translocase ABCB1 (Homo sapiens, UniProt P08183); assay: TP_TRANSPORTER: intracellular accumulation in KB cell and KB-VJ300 cells; type: functional, cell-based
Chain of ATP-dependent translocase ABCB1 (Homo sapiens, UniProt P08183) (P08183 whole entry): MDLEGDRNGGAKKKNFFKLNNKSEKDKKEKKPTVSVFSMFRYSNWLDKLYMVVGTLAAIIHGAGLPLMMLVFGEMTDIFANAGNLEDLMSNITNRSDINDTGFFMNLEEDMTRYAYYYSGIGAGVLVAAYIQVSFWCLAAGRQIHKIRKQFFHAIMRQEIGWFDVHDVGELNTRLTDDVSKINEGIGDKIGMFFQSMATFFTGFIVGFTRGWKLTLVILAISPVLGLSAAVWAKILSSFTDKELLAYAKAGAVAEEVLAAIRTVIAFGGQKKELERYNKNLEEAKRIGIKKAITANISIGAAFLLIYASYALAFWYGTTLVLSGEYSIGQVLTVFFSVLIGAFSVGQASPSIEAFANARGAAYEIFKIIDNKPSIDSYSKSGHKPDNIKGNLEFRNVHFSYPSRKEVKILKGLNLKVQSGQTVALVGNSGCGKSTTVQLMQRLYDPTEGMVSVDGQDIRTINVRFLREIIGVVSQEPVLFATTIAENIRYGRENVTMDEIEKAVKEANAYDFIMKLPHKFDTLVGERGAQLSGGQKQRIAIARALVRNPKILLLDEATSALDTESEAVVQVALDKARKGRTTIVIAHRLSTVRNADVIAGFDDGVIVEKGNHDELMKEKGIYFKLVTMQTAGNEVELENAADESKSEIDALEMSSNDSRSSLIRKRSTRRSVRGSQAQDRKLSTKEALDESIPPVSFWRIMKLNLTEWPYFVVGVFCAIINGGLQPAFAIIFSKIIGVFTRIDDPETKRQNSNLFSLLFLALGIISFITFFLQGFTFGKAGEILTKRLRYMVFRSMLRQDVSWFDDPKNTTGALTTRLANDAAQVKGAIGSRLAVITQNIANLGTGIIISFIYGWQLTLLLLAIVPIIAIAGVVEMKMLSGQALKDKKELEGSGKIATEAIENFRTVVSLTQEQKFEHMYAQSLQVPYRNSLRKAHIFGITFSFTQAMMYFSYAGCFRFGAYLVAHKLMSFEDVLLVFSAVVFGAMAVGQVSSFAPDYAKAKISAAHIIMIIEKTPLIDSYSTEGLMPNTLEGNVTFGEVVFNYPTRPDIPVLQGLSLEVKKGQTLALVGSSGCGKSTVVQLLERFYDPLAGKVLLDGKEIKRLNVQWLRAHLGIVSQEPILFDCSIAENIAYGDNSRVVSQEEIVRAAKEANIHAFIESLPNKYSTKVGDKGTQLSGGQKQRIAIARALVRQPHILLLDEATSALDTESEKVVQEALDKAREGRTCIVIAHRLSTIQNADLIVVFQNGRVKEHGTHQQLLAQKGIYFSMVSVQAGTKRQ

Chain of ATP-dependent translocase ABCB1 (Mus musculus, UniProt P21447) (P21447 whole entry): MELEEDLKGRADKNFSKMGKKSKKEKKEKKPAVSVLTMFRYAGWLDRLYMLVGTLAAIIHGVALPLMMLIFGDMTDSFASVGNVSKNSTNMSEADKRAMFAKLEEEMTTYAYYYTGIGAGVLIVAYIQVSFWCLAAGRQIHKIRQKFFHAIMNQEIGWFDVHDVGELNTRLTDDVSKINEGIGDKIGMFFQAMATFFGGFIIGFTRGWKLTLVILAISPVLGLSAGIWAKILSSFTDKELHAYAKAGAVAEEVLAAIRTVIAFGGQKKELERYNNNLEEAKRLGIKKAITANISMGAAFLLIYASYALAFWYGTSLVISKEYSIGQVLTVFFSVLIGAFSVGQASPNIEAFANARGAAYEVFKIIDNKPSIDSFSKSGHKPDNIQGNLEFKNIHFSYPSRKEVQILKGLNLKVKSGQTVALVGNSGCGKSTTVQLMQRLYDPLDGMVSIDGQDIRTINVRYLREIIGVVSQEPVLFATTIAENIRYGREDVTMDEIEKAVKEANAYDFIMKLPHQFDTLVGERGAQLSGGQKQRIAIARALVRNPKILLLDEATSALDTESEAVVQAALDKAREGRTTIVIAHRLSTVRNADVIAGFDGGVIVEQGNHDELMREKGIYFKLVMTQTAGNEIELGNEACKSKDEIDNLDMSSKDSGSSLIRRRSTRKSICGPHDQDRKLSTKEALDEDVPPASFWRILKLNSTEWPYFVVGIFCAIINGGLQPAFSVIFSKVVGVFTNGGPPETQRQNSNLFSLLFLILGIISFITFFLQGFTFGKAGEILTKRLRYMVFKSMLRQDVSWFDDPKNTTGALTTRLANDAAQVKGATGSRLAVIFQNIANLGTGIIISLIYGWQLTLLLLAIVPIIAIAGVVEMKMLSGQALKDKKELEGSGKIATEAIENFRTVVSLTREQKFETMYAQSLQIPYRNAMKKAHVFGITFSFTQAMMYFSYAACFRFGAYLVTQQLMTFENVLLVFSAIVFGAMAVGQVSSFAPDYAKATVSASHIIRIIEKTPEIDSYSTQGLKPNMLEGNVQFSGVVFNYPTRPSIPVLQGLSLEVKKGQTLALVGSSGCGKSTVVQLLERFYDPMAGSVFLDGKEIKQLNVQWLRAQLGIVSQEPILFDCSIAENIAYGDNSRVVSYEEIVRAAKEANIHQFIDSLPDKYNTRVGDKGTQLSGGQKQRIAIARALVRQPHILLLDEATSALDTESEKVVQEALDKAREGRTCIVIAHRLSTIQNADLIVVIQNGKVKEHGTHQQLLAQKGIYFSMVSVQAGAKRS

- Activity [1]: substrate [+]
- Activity [2]: substrate [+]
SMILES: CC(C)(C)NCC(O)COc1ccccc1C#N (configuration not stated) [BUNITROLOL]
